Like-named read-outs stand apart in the source and are kept apart here.
Tested on: recombinant human CFTR carrying the premature stop codon (PTC) mutation R1162X
Experiment: CFTR-PTC mutant translation readthrough, Nanoluc tagged CFTR luminescence (R1162X cell line)
Assay type: cell-based
Conditions: for CFTR R1162X ACTIVITY Fold 10 μM G-418: fold over 10 μM G-418, in combination with G418
Description: 16HBE human bronchial epithelial cells (stably over-expressing recombinant human CFTR carrying the premature stop codon (PTC) mutation G542X or R1162X along with a Nanoluc tag incorporated into the CFTR channel within extracellular loop 4 in G542X cell line or C-terminus end in the R1162X cell line were seeded at 0.01×10^6 cells/well and grown in Minimal Essential Medium (MEM) as monolayers in 384 well plates and incubated at 37° C. with 5% CO2. Media was changed every other day until day of experiment. Agents to be evaluated were made up in separate 384 well, polypropylene plates at a 2X the final desired test concentration. Test agent 10-point concentration response curves were constructed using the Labcyte Echo 555 acoustic dispenser. Test agents were typically tested at a max final test concentrations of 50 μM with sequential 2-fold lower concentrations below this in the absence or presence of a fixed 10 μM concentration of the aminoglycoside G418 made up in MEM growth media (reduced Serum Media+HEPES Buffer+2.4 g/L Sodium Bicarbonate+L-Glutamine containing CFTR corrector VX-809 (3 μM)). Treatment with 10 μM G418 alone produced approximately 10% of the response observed with a maximally effective concentration of G418 (typically 125-250 μM). Test agent effects in presence of 10 μM G418 were compared to control wells on the plate containing a maximally effective concentration of G418 (typically 125-250 μM) made up in the same media. 25 ul of test agents/control solutions were transferred from the compound plate to the cell plate, which already contained 25 ul/well of cell plating media, using an Integra Viaflo 384. Cell plates were incubated with the compounds for 48 hours, at which time they were processed using Nanoluc luminescence Kit (Promega Nano-Glo Live Cell Assay System) to measure CFTR-PTC mutant translation readthrough. Luminescence was measured as follows. Cell plates were removed from the incubator and allowed to equilibrate to room temperature for 20 minutes. Media was removed from all wells and the plates were blotted to remove excess remaining volume. Nano-Glo Live Cell Substrate was diluted 1:20 in the appropriate amount of Nano-Glo LCS Dilution Buffer to accommodate the number of cell plates being tested. The substrate/dilution buffer mix was then diluted 1:3 with MEM media to make the appropriate volume for the number of plates being tested. The substrate/dilution buffer/OptiMEM mix was added across the Nanoluc testing cell plates and the plates were read for luminescence signal immediately. Test agent effects on CFTR translation readthrough was determined by normalizing any observed increase in luminescence induced by 48 hours pretreatment with test compound to the magnitude of luminescence increase produced by pretreatment with a maximally effective concentration of the reference readthrough enhancing agent G418 (125-250 μM).

[1] = in combination with G418, 16HBE cells, read-out: CFTR R1162X ACTIVITY EC50
[2] = read-out: CFTR R1162X ACTIVITY EC50, in combination with G418, 16HBE cells

SMILES | EC50 [1] | CFTR R1162X ACTIVITY Fold 10 μM G-418 | EC50 [2]
FC(F)(F)c1cccc(Cl)c1COc1cnc(N2CCn3c(nnc3C(F)(F)F)C2)nc1 | 1 to 10 µM | C′ (C′ = <5X) | 
O=C1OC(CO)CN1c1ncc(OCc2c(Cl)ccc(F)c2Cl)cn1 (centres unmarked) | 1 to 10 µM | C′ (C′ = <5X) | 
O=C1N[C@H](CO)CN1c1ncc(OCc2c(C(F)(F)F)cccc2C(F)(F)F)cn1 [(4S)-1-(5-{[2,6-bis(trifluoromethyl)phenyl]methoxy}pyrimidin-2-yl)-4-(hydroxymethyl)imidazolidin-2-one] | > 10 µM | C′ (C′ = <5X) | 
O=C1CN(c2ccc(OCc3c(Cl)cccc3Cl)cn2)C(=O)N1 [Compound 332, 1-{5-[(2,6-dichlorophenyl)methoxy]pyridin-2-yl}imidazolidine-2,4-dione] | < 1 µM | C′ (C′ = <5X) | 
CC(=O)N1CCN(c2ncc(OCc3c(Cl)cccc3C(F)(F)F)cn2)C[C@@H]1CN | 1 to 10 µM | B′ (B′ = ≥5X to <10X) | 
O=C1CN(c2cnc(OCc3c(Cl)cccc3C(F)(F)F)cn2)C(=O)N1 | 1 to 10 µM | C′ (C′ = <5X) | 
O=C1N[C@H](CO)CN1c1ccc(OCc2c(C(F)(F)F)cccc2C(F)(F)F)cn1 | < 1 µM | C′ (C′ = <5X) | 
OCc1ncn(-c2ncc(CCc3c(Cl)cccc3Cl)cn2)n1 | 1 to 10 µM | C′ (C′ = <5X) | 
CCc1cccc(C(F)(F)F)c1COc1cnc(N2C[C@@H](CO)NC2=O)nc1 | 1 to 10 µM | C′ (C′ = <5X) | 
Cc1cccc(C(F)(F)F)c1COc1cnc(N2C[C@@H](CO)NC2=O)nc1 [(4S)-4-(hydroxymethyl)-1-(5-{[2-methyl-6-(trifluoromethyl)phenyl]methoxy}pyrimidin-2-yl)imidazolidin-2-one] | 1 to 10 µM | C′ (C′ = <5X) | 
OCc1cn(-c2ncc(OCc3c(Cl)ccc(F)c3Cl)cn2)nn1 | 1 to 10 µM | C′ (C′ = <5X) | 
O=C1CN(c2cnc(OCc3c(Cl)cccc3Cl)cn2)C(=O)N1 [Compound 336, 1-{5-[(2,6-dichlorophenyl)methoxy]pyrazin-2-yl}imidazolidine-2,4-dione] | 1 to 10 µM | C′ (C′ = <5X) | 
OCc1cn(-c2ncc(OCc3c(Cl)ccc(F)c3Cl)cn2)cn1 | < 1 µM | C′ (C′ = <5X) | 
OCc1cn(-c2ncc(OCc3c(Cl)cc(F)cc3Cl)cn2)cn1 | 1 to 10 µM | C′ (C′ = <5X) | 
OCc1cncn1-c1ncc(OCc2c(Cl)cccc2Cl)cn1 [Example 362, (3-{5-[(2,6-dichlorophenyl)methoxy]pyrimidin-2-yl}imidazol-4-yl) methanol] |  | A′ (A′ = ≥10X) | 1 to 10 µM
O=C1CN(c2ncc(OCc3c(Cl)cccc3C(F)(F)F)cn2)C1 [Compound 355, 1-(5-{[2-chloro-6-(trifluoromethyl)phenyl]methoxy}pyrimidin-2-yl)azetidin-3-one] | < 1 µM | A′ (A′ = ≥10X) | 
O=C1CN(c2ccc(OCc3c(Cl)ccc(F)c3Cl)cn2)C(=O)N1 [Compound 341, 1-{5-[(2,6-dichloro-3-fluorophenyl)methoxy]pyridin-2-yl}imidazolidine-2,4-dione] | < 1 µM | C′ (C′ = <5X) | 
OCc1ccn(-c2cnc(OCc3c(Cl)cccc3Cl)cn2)n1 [Example 339, (1-{5-[(2,6-dichlorophenyl)methoxy]pyrazin-2-yl}pyrazol-3-yl) methanol] |  | C′ (C′ = <5X) | 1 to 10 µM
NC(=O)c1ccn(-c2ncc(OCc3c(C(F)(F)F)cccc3C(F)(F)F)cn2)n1 | < 1 µM | A′ (A′ = ≥10X) | 
[2H]C([2H])(O)c1ccn(-c2ncc(OC([2H])([2H])c3c(Cl)cccc3Cl)cn2)n1 | 1 to 10 µM | C′ (C′ = <5X) | 
Cc1cccc(C(F)(F)F)c1COc1cnc(N2CCN(C)[C@@H](CN)C2)nc1 | > 10 µM | C′ (C′ = <5X) | 
O=C1CN(c2ccc(OCc3c(Cl)cccc3Cl)nn2)C(=O)N1 [Compound 351, 1-{6-[(2,6-dichlorophenyl)methoxy]pyridazin-3-yl}imidazolidine-2,4-dione] | 1 to 10 µM | C′ (C′ = <5X) | 
N#CC1(O)CN(c2ncc(OCc3c(Cl)cccc3C(F)(F)F)cn2)C1 | < 1 µM | A′ (A′ = ≥10X) | 
OCc1cn(-c2ncc(OCc3c(C(F)(F)F)cccc3C(F)(F)F)cn2)cn1 | < 1 µM | A′ (A′ = ≥10X) | 
O=C1CN(c2ccc(OCc3c(C(F)(F)F)cccc3C(F)(F)F)cn2)C(=O)N1 [1-(5-{[2,6-bis(trifluoromethyl)phenyl]methoxy}pyridin-2-yl)imidazolidine-2,4-dione] | < 1 µM | A′ (A′ = ≥10X) | 
O=C1CN(c2ccc(OCc3c(Cl)ccc(F)c3C(F)(F)F)cn2)C(=O)N1 | < 1 µM | A′ (A′ = ≥10X) | 
O=C1CN(c2ccc(OCc3c(Cl)cc(F)cc3Cl)cn2)C(=O)N1 [Compound 349, 1-{5-[(2,6-dichloro-4-fluorophenyl)methoxy]pyridin-2-yl}imidazolidine-2,4-dione] | 1 to 10 µM | C′ (C′ = <5X) | 
O=C1OC(CO)CN1c1ccc(OCc2c(Cl)ccc(F)c2Cl)cn1 (centres unmarked) [3-{5-[(2,6-dichloro-3-fluorophenyl)methoxy]pyridin-2-yl}-5-(hydroxymethyl)-1,3-oxazolidin-2-one] | 1 to 10 µM | C′ (C′ = <5X) | 
OCc1cnn(-c2ncc(OCc3c(Cl)ccc(F)c3Cl)cn2)n1 | < 1 µM | C′ (C′ = <5X) | 

Second part, led by results:

EC50 [1] | SMILES | CFTR R1162X ACTIVITY Fold 10 μM G-418 | EC50 [2]
< 1 µM | OCc1ncn(-c2ccc(OCc3c(C(F)(F)F)ccc(F)c3Cl)cn2)n1 | C′ (C′ = <5X) | 
< 1 µM | Cc1cccc(C(F)(F)F)c1COc1cnc(-n2ccc(C(N)=O)n2)nc1 | C′ (C′ = <5X) | 
< 1 µM | OCc1ccn(-c2ncc(OCc3c(C(F)(F)F)cccc3C(F)(F)F)cn2)n1 | A′ (A′ = ≥10X) | 
< 1 µM | OCc1ncn(-c2ccc(OCc3c(Cl)cccc3Cl)cn2)n1 [Example 337, (1-{5-[(2,6-dichlorophenyl)methoxy]pyridin-2-yl}-1,2,4-triazol-3-yl) methanol] | C′ (C′ = <5X) | 
< 1 µM | O=C1CN(c2ccc(OCc3c(C(F)(F)F)ccc(F)c3Cl)cn2)C(=O)N1 | C′ (C′ = <5X) | 
< 1 µM | OCc1cn(-c2ncc(OCc3c(C(F)(F)F)ccc(F)c3Cl)cn2)cn1 | C′ (C′ = <5X) | 
< 1 µM | O=C1N[C@H](CO)CN1c1ccc(OCc2c(Cl)cccc2C(F)(F)F)cn1 | C′ (C′ = <5X) | 
< 1 µM | OCc1ccn(-c2ncc(OCc3c(Cl)cccc3C(F)(F)F)cn2)n1 | C′ (C′ = <5X) | 
< 1 µM | Cc1cccc(C(F)(F)F)c1COc1cnc(-n2ncc(CO)n2)nc1 | C′ (C′ = <5X) | 
< 1 µM | Cc1ccc(F)c(C(F)(F)F)c1COc1ccc(-n2cnc(CO)n2)cc1 | A′ (A′ = ≥10X) | 
< 1 µM | Cc1c(F)ccc(C(F)(F)F)c1COc1ccc(-n2cnc(CO)n2)cc1 | C′ (C′ = <5X) | 
< 1 µM | OCc1ncn(-c2ncc(OCc3c(Cl)ccc(F)c3C(F)(F)F)cn2)n1 | A′ (A′ = ≥10X) | 
1 to 10 µM | OCc1ncn(-c2ncc(OCc3c(C(F)(F)F)ccc(F)c3Cl)cn2)n1 | A′ (A′ = ≥10X) | 
1 to 10 µM | [2H]C([2H])(O)c1ncn(-c2ncc(OC([2H])([2H])c3c(Cl)cccc3C(F)(F)F)cn2)n1 | C′ (C′ = <5X) | 
